Structures can show the parent of a compound that is named as a salt.
These molecules were tested on HeLa cells (assay: CellTiter-Glo luminescent cell viability (cytotoxicity) assay). Conditions: Homo sapiens, HeLa, 48 h, 10 μM test compound, inhibition of luminescence compared to control cells, read-out: Activity (PCT_INHIB @ 10 μM).
Assay type: cell-based
Experimental: Cytotoxicity was assessed using Promega's CellTiter-Glo® luminescent cell viability assay (Promega Corporation, Madison, Wis., USA) as described in Promega Technical Bulletin TB288, revised August 2008. The assay was performed in HeLa cells at a maximum concentration tested of 10 μM of test compound. This assay measures the amount of adenosine triphosphate (ATP) present as a way of quantifying the presence and degree of metabolic activity in cell cultures.
Viable Hela cells were plated at a density of 3000 cells/well in 96 wells in black, clear bottom plates. Cells were allowed to attach to the plate by incubating overnight at 37° C. Test compounds were diluted in DMSO then further diluted in 10% FBS media. Media was removed from the cell plates and 50 μL of the solution was added to each well manually with the exception of the control well, which contained the same volume of 10% FBS media which includes 1% DMSO. Cells were incubated in the presence of compound undisturbed for 48 hours at 37° C. After the 48 hour compound exposure, 50 μL of the pCellTiter Glo® reagent was added. The cell plates were agitated on a shaker for 2 minutes to help lyse the cells. The plate was covered and read for luminescence.
Percent inhibition was calculated as follows: PCT_INHIB=100*[(U−T)/U] Where U represents the Luminescence of wells containing untreated cells and
T represents the Luminescence of wells containing compound-treated cells

Structure (SMILES) | inhibition at 10 µM [%]
C[C@@H]1[C@@H](NC(=O)C2CCS(=O)(=O)N2Cc2cccc(CN(Cc3ccccc3Oc3ccc(C#N)cc3)[C@H](CN(C)C)CC(C)(C)C)c2)C[C@H]2C[C@@H]1C2(C)C (stereo partly drawn) [Example 16, 2-(3-{[[2-(4-Cyano-phenoxy)-benzyl]-((S)-1-dimethylaminomethyl-3,3-dimethyl-butyl)-amino]-methyl}-benzyl)-1,1-dioxo-1λ^6-isothiazolidine-3-carboxylic acid((1S,2S,3S,5R)-2,6,6-trimethyl-bicyclo[3.1.1]hept-3-yl)-amide trifluoroacetate salt] | 97
C[C@@H]1[C@@H](NC(=O)C2CCS(=O)(=O)N2Cc2cccc(CN(Cc3cccc4c3OCO4)[C@H](CN(C)C)CC(C)(C)C)c2)C[C@H]2C[C@@H]1C2(C)C (stereo partly drawn) [Example 17, 2-(3-{[Benzo[1,3]dioxol-4-ylmethyl-((S)-1-dimethylaminomethyl-3,3-dimethyl-butyl)-amino]-methyl}-benzyl)-1,1-dioxo-1λ^6-isothiazolidine-3-carboxylic acid((1S,2S,3S,5R)-2,6,6-trimethyl-bicyclo[3.1.1]hept-3-yl)-amide trifluoroacetate salt] | 96
C[C@@H]1[C@@H](NC(=O)C2CCS(=O)(=O)N2Cc2cccc(CN(Cc3c(F)ccc(Br)c3F)[C@H](CN(C)C)CC(C)(C)C)c2)C[C@H]2C[C@@H]1C2(C)C (stereo partly drawn) [Example 18, 2-(3-{[(3-Bromo-2,6-difluoro-benzyl)-((S)-1-dimethylaminomethyl-3,3-dimethyl-butyl)-amino]-methyl}-benzyl)-1,1-dioxo-1λ^6-isothiazolidine-3-carboxylic acid((1S,2S,3S,5R)-2,6,6-trimethyl-bicyclo[3.1.1]hept-3-yl)-amide trifluoroacetate salt] | 94
COc1ccc(Cl)c(CN(Cc2cccc(CN3C(C(=O)N[C@@H]4C[C@@H]5C[C@H]([C@H]4C)C5(C)C)CCS3(=O)=O)c2)[C@H](CN(C)C)CC(C)(C)C)c1F (stereo partly drawn) [Example 19, 2-(3-{[(6-Chloro-2-fluoro-3-methoxy-benzyl)-((S)-1-dimethylaminomethyl-3,3-dimethyl-butyl)-amino]-methyl}-benzyl)-1,1-dioxo-1λ^6-isothiazolidine-3-carboxylic acid((1R,2R,3R,5S)-2,6,6-trimethyl-bicyclo[3.1.1]hept-3-yl)-amide] | 73
COc1ccc(Cl)c(CN(Cc2cccc(CN3C(C(=O)NC45CC6CC(CC(C6)C4)C5)CCS3(=O)=O)c2)[C@H](CN(C)C)CC(C)(C)C)c1F (stereo partly drawn) [Example 20, 2-(3-{[(6-Chloro-2-fluoro-3-methoxy-benzyl)-((S)-1-dimethylaminomethyl-3,3-dimethyl-butyl)-amino]-methyl}-benzyl)-1,1-dioxo-1λ^6-isothizolidine-3-carboxylic acid adamantan-1-ylamide] | 95
COc1ccc(Cl)c(CN(Cc2cccc(CN3C(C(=O)N[C@H]4C[C@H]5C[C@@H]([C@@H]4C)C5(C)C)CCS3(=O)=O)c2)[C@@H](Cc2ccccc2)CN(C)C)c1F (stereo partly drawn) [Example 21, 2-(3-{[(6-Chloro-2-fluoro-3-methoxy-benzyl)-((S)-1-dimethylaminomethyl-2-phenyl-ethyl)-amino]-methyl}-benzyl)-1,1-dioxo-1λ^6-isothiazolidine-3-carboxylic acid((1S,2S,3S,5R)-2,6,6-trimethyl-bicyclo[3.1.1]hept-3-yl)-amide] | 77
COc1ccc(Cl)c(CN(Cc2cccc(CN3C(C(=O)N[C@H]4C[C@H]5C[C@@H]([C@@H]4C)C5(C)C)CCS3(=O)=O)c2)[C@@H](Cc2cccc(Cl)c2)CN(C)C)c1F (stereo partly drawn) [Example 22, 2-[3-({(6-Chloro-2-fluoro-3-methoxy-benzyl)-[(S)-2-(3-chloro-phenyl)-1-dimethylaminomethyl-ethyl]-amino}-methyl)-benzyl]-1,1-dioxo-1λ^6-isothiazolidine-3-carboxylic acid((1S,2S,3S,5R)-2,6,6-trimethyl-bicyclo[3.1.1]hept-3-yl)-amide] | 93

Reference: US8314250B2, “Sultam derivatives” (Hoffmann-La Roche Inc., priority 2009, dated 2012)
